Values quoted from earlier work as cited in patent publication US20190381137A1, “BOLAAMPHIPHILIC COMPOUNDS, COMPOSITIONS AND USES THEREOF” (Lauren Sciences LLC, priority 2012, published 2019).

Details: conjugate acid (protonated form) of the imidazole side chain

pKa: approximately 6.0
Compound: N[C@@H](Cc1c[nH]cn1)C(=O)O [histidine]
